How the values were obtained:
[1] = Microsomal stability assay, liver microsome half-life (dog); assay type: in vitro ADME; details: pH 7.4; dog liver microsomes 0.5 mg/mL + NADPH, 1 μM compound, 37° C; read-out: Liver microsome + NADPH T½ (min) Dog
Text: (§1) Microsomal Stability Assay: Microsomal stability assay is a widely used in vitro model to characterize the metabolic conversion by phase I enzymes, such as cytochrome P450 (CYP) enzymes. Since metabolism is known to be highly variable in different species, microsomal stability assay is commonly run in multiple species. Metabolic stability of testing compound can be evaluated using human, rat, mouse, or other animal liver or intestine microsomes to predict intrinsic clearance.
(§2) The assay was carried out in 96-well microtiter plates at 37° C. Reaction mixtures (25 μL) contained a final concentration of 1 μM test compound, 0.5 mg/mL liver microsomes protein, and 1 mM NADPH and/or 1 mM UDPGA (with alamethicin) in 100 mM potassium phosphate, pH 7.4 buffer with 3 mM MgCl2. The incubation was done with N=1, but duplicate incubation at each time point can be prepared if necessary. At each of the time points (for example, 0, 15, 30, and 60 minutes), 150 μL of quench solution (100% acetonitrile with 0.1% formic acid) with internal standard was transferred to each well. Besides the zero minute controls, mixtures containing the same components except the NADPH can also be prepared as the negative control. Verapamil was included as a positive control to verify assay performance. Plates were sealed, vortexed, and centrifuged at 4° C. for 15 minutes at 4000 rpm. The supernatant is transferred to fresh plates for LC/MS/MS analysis.
(§3) Summarized conditions: [Compound]=1 μM, [LM]=0.5 mg/mL, [NADPH]=1 mM and/or [UDPGA]=1 mM, Buffer=100 mM Potassium Phosphate, pH 7.4 with 3 mM MgCl2, Time=0, 15, 30, and 60 min, and Temperature=37° C.
(§4) All samples were analyzed on LC/MS/MS using an AB Sciex API 4000 instrument, coupled to a Shimadzu LC-20AD LC Pump system. Analytical samples were separated using a Waters Atlantis T3 dC18 reverse phase HPLC column (20 mm×2.1 mm) at a flow rate of 0.5 mL/min. The mobile phase consisted of 0.1% formic acid in water (solvent A) and 0.1% formic acid in 100% acetonitrile (solvent B).
(§5) The extent of metabolism is calculated as the disappearance of the test compound, compared to the 0-min time incubation. Initial rates are calculated for the compound concentration and used to determine half-life (t1/2).

[2] = Microsomal stability assay, liver microsome half-life (rat); assay type: in vitro ADME; details: pH 7.4; rat liver microsomes 0.5 mg/mL + NADPH, 1 μM compound, 37° C; read-out: Liver microsome + NADPH T½ (min) Rat
Text: as §1, §2, §3, §4, §5

[3] = Microsomal stability assay, liver microsome half-life (monkey); assay type: in vitro ADME; details: pH 7.4; monkey liver microsomes 0.5 mg/mL + NADPH, 1 μM compound, 37° C; read-out: Liver microsome + NADPH T½ (min) Monkey
Text: as §1, §2, §3, §4, §5

[4] = Microsomal stability assay, liver microsome half-life (mouse); assay type: in vitro ADME; details: pH 7.4; mouse liver microsomes 0.5 mg/mL + NADPH, 1 μM compound, 37° C; read-out: Liver microsome + NADPH T½ (min) Mouse
Text: as §1, §2, §3, §4, §5

androgen receptor (AR) [5] = biological target: T1, androgen receptor (AR) (Homo sapiens, UniProt P10275); experiment: Androgen-induced PSA-luciferase assay, Luciferase Assay B (cells stably expressing ARR2PB or PSA-firefly luciferase reporter, 384-well); assay type: cell-based; details: Luciferase Assay B (Compounds A186-A219 and A221-A245); stable luciferase reporter cells, 1 h pretreatment, R1881 24 h, serum-free; read-out: PSA-Luc IC50 Range
T1 sequence (P10275 1-920 T878A): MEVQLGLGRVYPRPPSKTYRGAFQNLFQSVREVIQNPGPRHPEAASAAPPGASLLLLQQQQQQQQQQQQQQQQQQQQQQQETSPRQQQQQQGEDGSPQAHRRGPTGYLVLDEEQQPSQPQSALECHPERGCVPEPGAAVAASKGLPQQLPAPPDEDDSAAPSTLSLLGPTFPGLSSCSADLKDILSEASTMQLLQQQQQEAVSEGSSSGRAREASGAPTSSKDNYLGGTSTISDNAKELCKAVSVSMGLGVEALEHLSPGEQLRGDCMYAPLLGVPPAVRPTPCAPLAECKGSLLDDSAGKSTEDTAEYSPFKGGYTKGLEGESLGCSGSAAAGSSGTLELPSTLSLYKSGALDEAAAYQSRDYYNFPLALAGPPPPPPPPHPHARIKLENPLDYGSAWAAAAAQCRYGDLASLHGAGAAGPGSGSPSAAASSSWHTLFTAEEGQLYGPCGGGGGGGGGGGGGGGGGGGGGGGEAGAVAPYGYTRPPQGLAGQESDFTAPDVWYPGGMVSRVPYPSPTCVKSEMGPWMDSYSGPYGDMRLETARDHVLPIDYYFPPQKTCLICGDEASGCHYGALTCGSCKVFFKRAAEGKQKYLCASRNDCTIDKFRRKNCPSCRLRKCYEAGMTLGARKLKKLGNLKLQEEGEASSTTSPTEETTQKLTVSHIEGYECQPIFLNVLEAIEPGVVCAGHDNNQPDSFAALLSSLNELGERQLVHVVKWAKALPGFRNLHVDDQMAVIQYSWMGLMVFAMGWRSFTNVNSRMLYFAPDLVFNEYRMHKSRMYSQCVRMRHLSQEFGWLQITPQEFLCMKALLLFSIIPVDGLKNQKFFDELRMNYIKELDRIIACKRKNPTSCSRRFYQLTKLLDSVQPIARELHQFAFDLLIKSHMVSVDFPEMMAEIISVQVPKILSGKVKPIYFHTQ
Procedure: Luciferase Assay B: Cells stably expressing probasin promoter (ARR2PB) or human prostate-specific antigen (PSA)-firefly luciferase reporter were plated in poly-D-lysine-coated 384-well plates. 48 h after plating, cells were pretreated with vehicle or compounds for 1 h before adding R1881 under serum-free and phenol red-free conditions and then further incubated for 24 h. R1881 was added only for LNCaP cells. Firefly luciferase activities were determined by EnVision plate reader (Perkinemer) using the Steady-Glo Luciferase Reporter Assay System (Promega). Values were normalized to protein content. GraphPad Prism graphing software was used to calculate IC50 values. Luciferase Assay B was run for Compounds A186-A219 and A221-A245 in Table 2.
Statistical analyses were performed using GraphPad Prism (Version 6.01 for Windows; La Jolla, CA, USA). Comparisons between treatment and control groups were compared using Two-Way ANOVA with post-hoc Dunnett's and Tukey's tests. Differences were considered statistically significant at P values less than 0.05.

[6] = Microsomal stability assay, liver microsome half-life (human); assay type: in vitro ADME; details: pH 7.4; human liver microsomes 0.5 mg/mL + NADPH, 1 μM compound, 37° C; read-out: Liver microsome + NADPH T½ (min) Human
androgen receptor (AR) [7] = biological target: T2, androgen receptor (AR) (Homo sapiens, UniProt P10275, T878A); experiment: Androgen-induced PSA-luciferase assay, Luciferase Assay A (LNCaP transiently transfected with PSA (6.1 kb)-luciferase reporter); assay type: cell-based; details: LNCaP cells, 1 h pretreatment, R1881 (1 nM) 24 h, read-out: PSA-Luc IC50 Range
T2 construct: endogenous in cells; host or cells: LNCaP
T2 sequence (P10275 1-920 T878A): T1 sequence (P10275 1-920 T878A)
Procedure, shortened: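 LNCaP cells transfected 24 h with PSA (6.1 kb)-luciferase reporter, pretreated 1 h with compound, then stimulated 24 h with R1881 (1 nM). Firefly luminescence in lysates normalized to protein content; IC50 from activity relative to R1881-induced vehicle control.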

| SMILES | half-life at 1 μM [1] [min] | half-life at 1 μM [2] [min] | half-life at 1 μM [3] [min] | half-life at 1 μM [4] [min] | IC50 (androgen receptor (AR) [5]) [nM] | half-life at 1 μM [6] [min] | IC50 (androgen receptor (AR) [7]) [nM] |
| --- | --- | --- | --- | --- | --- | --- | --- |
| CS(=O)(=O)Nc1nccc(COc2ccc(N(CC(F)(F)F)c3cc(Cl)c(OC4CC4)c(C#N)c3)cc2)n1 [Compound A202] | > 120 | > 120 | > 120 | > 120 | < 500 | > 120 | – |
| [2H]C([2H])([2H])N(c1ccc(-c2ccc3nc(NS(C)(=O)=O)cnc3c2)cc1)c1cc(Cl)c(OC2CC2)c(C#N)c1 [Compound A187] | > 120 | > 120 | > 120 | > 120 | 500 to 2000 | > 120 | – |
| CS(=O)(=O)Nc1cnc2cc(-c3ccc(N(CC(F)(F)F)c4cc(F)c(OC5CC5)c(C#N)c4)cc3)ccc2n1 [Compound A199] | > 120 | > 120 | > 120 | > 120 | < 500 | > 120 | – |
| N#Cc1cc(Oc2ccc(-c3ccc4nc(N5CC(O)C5)cnc4c3)cc2)cc(Cl)c1OC1CC1 [Compound A205] | > 120 | > 120 | > 120 | > 120 | 500 to 2000 | > 120 | – |
| CS(=O)(=O)Nc1cnc2cc(-c3ccc(Oc4cc(C#N)c(OC5CC5)c(C#N)c4)cc3)ccc2n1 [Compound A198] | > 120 | > 120 | > 120 | > 120 | < 500 | > 120 | – |
| CS(=O)(=O)Nc1nc2ccc(-c3ccc(Oc4cc(Cl)c(OC5CC5)c(C#N)c4)cc3)cc2cc1F [Compound A191] | > 120 | > 120 | > 120 | > 120 | 500 to 2000 | > 120 | – |
| CS(=O)(=O)Nc1cnc2cc(-c3ccc(N(CC(F)(F)F)c4cnc(OC5CC5)c(C#N)c4)cc3)ccc2n1 [Compound A203, N-(6-(4-((5-cyano-6-cyclopropoxypyridin-3-yl)(2,2,2-trifluoroethyl)amino)phenyl)quinoxalin-2-yl)methanesulfonamide] | > 120 | > 120 | > 120 | > 120 | < 500 | > 120 | – |
| CN(c1ccc(-c2ccc3nc(NS(C)(=O)=O)cnc3c2)cc1)c1cc(Cl)c(OC2CC2)c(C#N)c1 [Compound A164, N-(6-(4-((3-chloro-5-cyano-4-cyclopropoxyphenyl)(methyl)amino)phenyl)quinoxalin-2-yl)methanesulfonamide] | > 120 | > 120 | > 120 | > 120 | – | > 120 | 500 to 2000 |
| CS(=O)(=O)Nc1cnc2cc(-c3ccc(N(CC(F)(F)F)c4cc(Cl)c(OC5CC5)c(C#N)c4)cc3)ccc2n1 [Compound A186, N-(6-(4-((3-chloro-5-cyano-4-cyclopropoxyphenyl) (2,2,2-trifluoroethyl)amino)phenyl)quinoxalin-2-yl)methanesulfonamide] | > 120 | > 120 | > 120 | > 120 | < 500 | > 120 | – |
| CN(c1ccc(-c2ccc3nc(NS(C)(=O)=O)cnc3c2)cc1)c1cc(F)c(OC2CC2)c(C#N)c1 [Compound A208] | > 120 | > 120 | > 120 | > 120 | < 500 | > 120 | – |
| CS(=O)(=O)Nc1cnc2cc(-c3ccc(Oc4cc(Cl)c(OC5CCC5)c(C#N)c4)cc3)ccc2n1 [Compound A78] | > 120 | > 120 | > 120 | > 120 | – | > 120 | 500 to 2000 |
| CS(=O)(=O)Nc1cnc2cc(-c3ccc(Oc4cc(C#N)c(OC5CC5)c(C(F)(F)F)c4)cc3)ccc2n1 [Compound A190] | > 120 | > 120 | > 120 | > 120 | 500 to 2000 | > 120 | – |

Source: patent publication US20230373934A1, “ANDROGEN RECEPTOR MODULATORS AND METHODS FOR THEIR USE” (ESSA Pharma, Inc., priority 2022, published 2023)
